US10501482B2, “Compounds for treating spinal muscular atrophy” (Hoffmann-La Roche Inc., priority 2013, dated 2019)
Structures can show the parent of a compound that is named as a salt.

Experiments:
[1] = test system: SMN protein; experiment: SMN protein assay (HTRF) in cultured SMA patient fibroblast cells; assay type: cell-based; details: SMA Type 1 human fibroblasts GM03813, 48 hours; for EC1.5x SMN protein (EC1.5x concentration for SMN protein expression): 7-point concentration curve, concentration giving 1.5 times SMN protein vs vehicle; for max. fold increase (maximum fold increase of SMN protein): 7-point concentration data, fold vs vehicle control
In short: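 SMA patient fibroblasts seeded at 5,000 cells/well, treated 48 h at 37 °C in triplicate per concentration (7-point series). Lysed in RIPA with protease inhibitors; SMN read by HTRF (anti-SMN d2/kryptate, overnight RT), 665/620 nm ratio. ΔF vs blank, expressed as fold over vehicle; EC1.5x and maximum fold increase derived.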

[2] = test system: full length SMN2 minigene mRNA (FL SMN2mini) in HEK293H cells stably transfected with the SMN2-A minigene construct; experiment: SMN2 minigene mRNA splicing RT-qPCR assay in cultured cells; assay type: cell-based; details: Homo sapiens, HEK293-H, 24 hours, 7-point concentration curve, concentration giving 1.5-fold FL SMN2mini mRNA vs vehicle, read-out: EC1.5x minigene (EC1.5x concentration for production of full length SMN2 minigene mRNA)
In short: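 Stably transfected HEK293H cells, 10,000/well in DMEM/10% FBS with hygromycin, attached 6 h, then received compound for 24 h at 37° C in duplicate at 7 concentrations. Multiplex RT-qPCR with GAPDH used primers that detect only the minigene. An efficiency-corrected ΔΔCt, GAPDH- and vehicle-normalized, gave EC1.5x concentrations.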

## Cc1cn2cc(NC(=O)c3ccc(N4CCNCC4)c(C)c3)cc(F)c2n1 [Example 66, N-(8-fluoro-2-methylimidazo[1,2-a]pyridin-6-yl)-3-methyl-4-(piperazin-1-yl)benzamide]
[1]
  EC1.5x SMN protein (EC1.5x concentration for SMN protein expression): 0.6108 µM
  max. fold increase (maximum fold increase of SMN protein): 1.5438
[2]
  EC (1.5-fold): 0.518 µM

## Cc1cn2cc(NC(=O)c3ccc(C4=CCNCC4)cc3F)cc(F)c2n1 [Example 61, 2-fIuoro-N-(8-fluoro-2-methyl-imidazo[1,2-a]-pyridin-6-yl)-4-(1,2,3,6-tetra-hydropyridin-4-yl)benzamide hydrochloride]
[1]
  max. fold increase (maximum fold increase of SMN protein): 1.7077
[2]
  EC (1.5-fold): 0.01 µM

## Cc1nc2c(F)cc(NC(=O)c3ccc(N4CCNC(C)C4)nc3)cc2o1 (racemic) [Example 27, rac-N-(4-Fluoro-2-methylbenzo-oxazol-6-yl)-6-(3-methylpiperazin-1-yl)nicotinamide]
[1]
  EC1.5x SMN protein (EC1.5x concentration for SMN protein expression): 0.3964 µM
  max. fold increase (maximum fold increase of SMN protein): 1.6617
[2]
  EC (1.5-fold): 0.0989 µM

## Cc1cn2cc(NC(=O)c3ccc(N4CCNC(C)C4)nc3)cc(F)c2n1 (racemic) [Example 42, rac-N-(8-fluoro-2-methylimidazo-[1,2-a]pyridin-6-yl)-6-(3-methyl-piperazin-1-yl)-nicotinamide dihydrochloride]
[1]
  EC1.5x SMN protein (EC1.5x concentration for SMN protein expression): 0.1488 µM
  max. fold increase (maximum fold increase of SMN protein): 1.6988
[2]
  EC (1.5-fold): 0.0544 µM

## Cc1cn2cc(NC(=O)c3c(F)cc(N4CCNC(C)C4)cc3F)cc(Cl)c2n1 (racemic) [Example 57, rac-N-(8-chloro-2-methylimidazo[1,2-a]pyridin-6-yl)-2,6-difluoro-4-(3-methylpiperazin-1-yl)benzamide trihydrochloride]
[1]
  EC1.5x SMN protein (EC1.5x concentration for SMN protein expression): 1.7363 µM
  max. fold increase (maximum fold increase of SMN protein): 1.578
[2]
  EC (1.5-fold): 0.0262 µM

## Cc1cn2cc(NC(=O)c3ccc(N4CCN(C)CC4)cn3)nc2c(C)n1 [Example 9, N-(6,8-dimethyl-imidazo[1,2-a]-pyrazin-2-yl)-5-(4-methyl-piperazin-1-yl)picolinamide]
[1]
  EC1.5x SMN protein (EC1.5x concentration for SMN protein expression): 1.527 µM
  max. fold increase (maximum fold increase of SMN protein): 1.6085
[2]
  EC (1.5-fold): 0.794 µM

## Cc1cn2cc(NC(=O)c3ccc(N4CCNCC4)cc3F)ccc2n1 [Example 44, 2-fluoro-N-(2-methylimidazo[1,2-a]pyridin-6-yl)-4-(piperazin-1-yl)-benzamidehydro-chloride]
[1]
  EC1.5x SMN protein (EC1.5x concentration for SMN protein expression): 0.13 µM
  max. fold increase (maximum fold increase of SMN protein): 1.8243
[2]
  EC (1.5-fold): 0.0648 µM

## COc1nc(N2CCNC(C)C2)ccc1C(=O)Nc1cc(F)c2nc(C)cn2c1 (racemic) [Example 74, rac-N-(8-fluoro-2-methylimidazo[1,2-a]pyridin-6-yl)-2-methoxy-6-(3-methylpiperazin-1-yl)nicotinamide]
[1]
  EC1.5x SMN protein (EC1.5x concentration for SMN protein expression): 0.1524 µM
  max. fold increase (maximum fold increase of SMN protein): 1.709
[2]
  EC (1.5-fold): 0.0161 µM

## Cc1nc2c(F)cc(NC(=O)c3ccc(N4CCN5CCC[C@@H]5C4)cc3F)cc2o1 [Example 34, (R)-2-fluoro-N-(4-fluoro-2-methyl-benzo[d]oxazol-6-yl)-4-(hexahydro-pyrrolo[1,2-a]-pyrazin-2(1H)-yl)benzamide]
[1]
  EC1.5x SMN protein (EC1.5x concentration for SMN protein expression): 0.7793 µM
  max. fold increase (maximum fold increase of SMN protein): 1.6527
[2]
  EC (1.5-fold): 0.328 µM

## Cc1cn2cc(NC(=O)c3ccc(N4CCNCC4)nc3OCC(F)(F)F)cc(F)c2n1 [Example 73, N-(8-fluoro-2-methylimidazo[1,2-a]pyridin-6-yl)-6-(piperazin-1-yl)-2-(2,2,2-trifluoro-ethoxy)nicotinamide]
[1]
  EC1.5x SMN protein (EC1.5x concentration for SMN protein expression): 0.7589 µM
  max. fold increase (maximum fold increase of SMN protein): 1.5775
[2]
  EC (1.5-fold): 0.062 µM

## Cc1cn2cc(NC(=O)c3cnc(N4CCNC(C)C4)c(F)c3)cc(Cl)c2n1 (racemic) [Example 53, rac-N-(8-chloro-2-methylimidazo-[1,2-a]pyridin-6-yl)-5-fluoro-6-(3-methylpiperazin-1-yl)nicotinamide hydrochloride]
[1]
  EC1.5x SMN protein (EC1.5x concentration for SMN protein expression): 0.7455 µM
  max. fold increase (maximum fold increase of SMN protein): 1.6563
[2]
  EC (1.5-fold): 0.21 µM

## Cc1cn2cc(NC(=O)c3ccc(C4=CCNCC4)nc3)cc(F)c2n1 [Example 62, N-(8-fluoro-2-methylimidazo[1,2-a]pyridin-6-yl)-6-(1,2,3,6-tetra-hydropyridin-4-yl)nicotinamide dihydrochloride]
[1]
  max. fold increase (maximum fold increase of SMN protein): 1.5583
[2]
  EC (1.5-fold): 0.0136 µM

## Cc1cn2cc(NC(=O)c3ccc(N4CCNC(C)(C)C4)nc3)ccc2n1 [Example 13, 6-(3,3-dimethyl-piperazin-1-yl)-N-(2-methyl-imidazo[1,2-a]-pyridin-6-yl)-nicotinamide]
[1]
  EC1.5x SMN protein (EC1.5x concentration for SMN protein expression): 1.7564 µM
  max. fold increase (maximum fold increase of SMN protein): 1.624
[2]
  EC (1.5-fold): 1.03 µM

## Cc1cn2cc(NC(=O)c3ccc(N4CCN(C)C(C)C4)nc3)ccc2n1 (racemic) [Example 82, rac-6-(3,4-dimethylpiperazin-1-yl)-N-(2-methylimidazo[1,2-a]pyridin-6-yl)nicotinamide]
[1]
  EC1.5x SMN protein (EC1.5x concentration for SMN protein expression): 0.7698 µM
  max. fold increase (maximum fold increase of SMN protein): 1.7306
[2]
  EC (1.5-fold): 0.371 µM
